Experimental data: the Deep4Chem optical property database
“And” between values parts separate entries of the source, which are not always exact repeats. Equal values may be shown once. Blank lines part the entries; values can stand above or below the compound they belong to.

Test: solvent given as SMILES

absorption maximum (in CO): 258 nm | absorption maximum (in CS(C)=O): 266 nm
Structure (SMILES): COc1ccc(NC(=O)C(C(=O)Nc2ccc(OC)cc2)C(c2ccccc2O)c2c(C)[nH]c3ccccc23)cc1 (stereo not given)

absorption maximum (in CCO): 457 nm
Structure (SMILES): CN1c2cc3nc4cc(F)c(F)cc4nc3cc2N(C)C1(C)C

Structure (SMILES): CC[N+]1(CC)CN2C(=N1)C(C(=O)[O-])=Cc1ccccc12
absorption maximum (in CN(C)C=O): 378 nm | absorption maximum (in O): 369 nm

absorption maximum (in ClCCl): 376 nm
Structure (SMILES): FC(F)(F)c1ccc(-n2c(-c3ccc(N(c4ccc(-c5ccc(N(c6ccc(-c7nc8c9ccccc9c9ccccc9c8n7-c7ccc(C(F)(F)F)cc7)cc6)c6ccc(-c7nc8c9ccccc9c9ccccc9c8n7-c7ccc(C(F)(F)F)cc7)cc6)cc5)cc4)c4ccc(-c5nc6c7ccccc7c7ccccc7c6n5-c5ccc(C(F)(F)F)cc5)cc4)cc3)nc3c4ccccc4c4ccccc4c32)cc1

absorption maximum (in CN(C)C=O): 313 nm
Structure (SMILES): Cc1nc2cccc(-c3nc4ccccc4[nH]3)c2c(=O)[nH]1

absorption maximum (in ClCCl): 416 nm
Structure (SMILES): CCCCCC#Cc1cc(C#CCCCCC)c2ccc3c(C(=O)c4ccccc4)cc(C#CCCCCC)c4ccc1c2c43

absorption maximum (in CC#N): 364 nm
Structure (SMILES): N#C/C(=C\c1ccc(Cl)cc1)c1nc(-c2ccccc2)cs1

absorption maximum (in ClCCl): 418 nm
Structure (SMILES): Cn1cc(-c2nc3ccccc3nc2C#Cc2ccc(C#N)cc2)c2ccccc21

absorption maximum (in ClCCl): 530 nm
Structure (SMILES): O=[N+]([O-])c1ccc2c(ccc3[n+]2[B-](F)(F)n2c-3cc3c4ccccc4c4ccccc4c32)c1

absorption maximum (in CS(C)=O): 368 nm
Structure (SMILES): O=C1CCCC2=C1C(c1ccccc1)c1c(c3ccccc3oc1=O)N2 (stereo not given)

Structure (SMILES): CC(C)(C)c1ccc2c(c1)Sc1cc(C(C)(C)C)ccc1N2c1ccc2c(ccc3nc4ccc5cc(N6c7ccc(C(C)(C)C)cc7Sc7cc(C(C)(C)C)ccc76)ccc5c4nc32)c1
absorption maximum (in C1CCCCC1): 451 nm | absorption maximum (in C1CCOC1): 452 nm | absorption maximum (in Cc1ccccc1): 451 nm

absorption maximum (in C1CCOC1): 664 nm | absorption maximum (in CS(C)=O): 666 nm | absorption maximum (in ClCCl): 664 nm
Structure (SMILES): COCCOCCOCCOc1ccc(/C=C/C2=[N+]3C(=C(c4cc(OC)cc(OC)c4)c4c(C)c(I)c(/C=C/c5ccc(OCCOCCOCCOC)cc5)n4[B-]3(F)F)C(C)=C2I)cc1

absorption maximum (in ClCCl): 486 nm
Structure (SMILES): c1ccc(-c2ccc3c4ccc(-c5ccccc5)c5c(-c6ccccc6)ccc(c6ccc(-c7ccccc7)c2c36)c54)cc1

absorption maximum (in ClCCl): 572 nm
Structure (SMILES): CCCCCCc1cc2c(=S)c3cc(CCCCCC)cc4c(=S)c5cc(CCCCCC)cc6c(=S)c(c1)c2n(c34)c65

absorption maximum (in C1CCOC1): 400 nm
Structure (SMILES): Cc1ccc(-c2cnc3nn4ccccc4c3n2)cc1

absorption maximum (in ClCCl): 640 nm
Structure (SMILES): CC1=[N+]2C(=Cc3c4c(cn3[B-]2(F)F)-c2nc-4c(-c3ccccc3)c3ccc([nH]3)c(-c3ccccc3)c3nc(c(-c4ccccc4)c4ccc([nH]4)c2-c2ccccc2)C=C3)C(C)C1 (stereo not given)

Structure (SMILES): O=[N+]([O-])c1ccc(NCCN(Cc2c3ccccc3cc3ccccc23)c2ccc([N+](=O)[O-])cc2[N+](=O)[O-])c([N+](=O)[O-])c1
absorption maximum (in C1CCCCC1): 355 nm | absorption maximum (in C1CCOC1): 372 nm | absorption maximum (in CC#N): 371 nm | absorption maximum (in CC(C)=O): 371 nm | absorption maximum (in CCO): 368 nm | absorption maximum (in CN(C)C=O): 267 nm | absorption maximum (in CO): 369 nm | absorption maximum (in ClC(Cl)Cl): 355 nm

absorption maximum (in ClCCl): 370 nm
Structure (SMILES): COc1ccc(/C=C/c2cc(/C=C/c3ccc(OC)cc3)nc(/C=C/c3ccc(N(C)C)cc3)n2)cc1

absorption maximum (in C1CCOC1): 676 nm | absorption maximum (in ClCCl): 685 nm
Structure (SMILES): CCCCCCCc1cc2c(o1)=CC1=C3c4cc5oc(CCCCCCC)cc5n4[B-](F)(F)[n+]4nnn(c43)[B-](F)(F)[N+]=21

absorption maximum (in CC#N): 328 nm | absorption maximum (in CCOC(C)=O): 328 nm | absorption maximum (in CN(C)C=O): 334 nm | absorption maximum (in CS(C)=O): 338 nm | absorption maximum (in c1ccccc1): 328 nm
Structure (SMILES): CCOC(=O)CN(CC(=O)OCC)c1ccc(-c2cc(-c3cccnc3)nc(-c3cccnc3)c2)cc1

absorption maximum (in CO): 770 nm
Structure (SMILES): CC1(C)C(/C=C/C2=C(c3ccc(C(=O)O)cc3)C(=C/C=C3/N(CCCCS(=O)(=O)[O-])c4ccc(S(=O)(=O)[O-])cc4C3(C)C)/CCC2)=[N+](CCCCS(=O)(=O)[O-])c2ccc(S(=O)(=O)[O-])cc21

absorption maximum (in ClC(Cl)Cl): 767 nm
Structure (SMILES): CC(C)(C)c1ccc(C2=c3sc(-c4ccc(C(C)(C)C)cc4)cc3=[N+]3C2=Nc2c(-c4ccc(C(C)(C)C)cc4)c4sc(-c5ccc(C(C)(C)C)cc5)cc4n2[B-]3(F)F)cc1

absorption maximum (in ClCCl): 543 nm
Structure (SMILES): CN(C)c1ccc(C2=CC3=C(c4ccc(C=C(C#N)C#N)cc4)[C@H]4c5ccccc5[C@]3(S2)c2ccccc24)cc1

Structure (SMILES): COc1ccc(-c2nc3c(c4c2-c2ccc(C#N)cc2CC4)-c2ccc(C#N)cc2CC3)cc1
absorption maximum (in C1CCOC1): 332 nm | absorption maximum (in CC#N): 329 nm | absorption maximum (in CCCCCC): 336 nm | absorption maximum (in CCOC(C)=O): 324 nm | absorption maximum (in CO): 326 nm | absorption maximum (in CS(C)=O): 331 nm | absorption maximum (in Cc1ccccc1): 334 nm | absorption maximum (in ClCCl): 333 nm

Structure (SMILES): Cc1cc(C)c(C)c(B(c2c(C)c(C)cc(C)c2C)c2c(C)c(C)c(N3c4ccccc4Oc4ccccc43)c(C)c2C)c1C
absorption maximum (in CC(C)(C)c1ccc(-n2c3ccc([Si](c4ccccc4)(c4ccccc4)c4ccccc4)cc3c3cc([Si](c4ccccc4)(c4ccccc4)c4ccccc4)ccc32)cc1): 373 nm

absorption maximum (in C1COCCO1): 322 nm | absorption maximum (in CC#N): 322 nm | absorption maximum (in CC(C)O): 321 nm | absorption maximum (in CCCCO): 321 nm | absorption maximum (in CCO): 321 nm | absorption maximum (in CCOC(C)=O): 322 nm | absorption maximum (in CN(C)C=O): 324 nm | absorption maximum (in CO): 321 nm | absorption maximum (in CS(C)=O): 325 nm | absorption maximum (in O): 319 nm
Structure (SMILES): O=S(=O)([O-])c1ccc(O)c2ccccc12

Structure (SMILES): Oc1ccccc1/C=N/N=C/c1ccccc1O
absorption maximum (in CC#N): 355 nm | absorption maximum (in CC(C)CCCC(C)CCCC(C)CCCCC(C)CCCC(C)CCCC(C)C): 363 nm | absorption maximum (in CCCCCC): 361 nm | absorption maximum (in CCCCCCCCC): 362 nm | absorption maximum (in CCCCCCCCCCCCCCCC): 363 nm | absorption maximum (in CCCCl): 359 nm | absorption maximum (in CCN(CC)CC): 359 nm | absorption maximum (in CCO): 356 nm | absorption maximum (in CCOCC): 358 nm | absorption maximum (in CO): 355 nm | absorption maximum (in O=C(O)C(F)(F)F): 398 nm | absorption maximum (in OC(C(F)(F)F)C(F)(F)F): 345 nm | absorption maximum (in OCC(F)(F)F): 350 nm | absorption maximum (in OCCO): 357 nm

absorption maximum (in ClC(Cl)Cl): 426 nm
Structure (SMILES): F[B-]1(F)OC(c2cccc(Br)c2)=Cc2ccc3ccccc3[n+]21

absorption maximum (in ClC(Cl)Cl): 372 nm
Structure (SMILES): CCCCc1c2c(nc3ccccc13)-c1cc3c(cc1CC2)-c1nc2ccccc2c(CCCC)c1CC3

absorption maximum (in C1CCCCC1): 350 nm | absorption maximum (in CC#N): 367 nm | absorption maximum (in CCCCCCCCO): 373 nm | absorption maximum (in CCCCCCO): 373 nm | absorption maximum (in CCCCO): 374 nm | absorption maximum (in CCCO): 376 nm | absorption maximum (in CCO): 376 nm and 435 nm and 373 nm | absorption maximum (in CCOC(C)=O): 361 nm | absorption maximum (in OCC(O)CO): 384 nm
Structure (SMILES): CCN(CC)c1ccc2c(C)cc(=O)oc2c1

absorption maximum (in CCO): 368 nm
Structure (SMILES): CC(C)(C)Nc1cc2oc3cc(NC(C)(C)C)c(F)cc3c(=O)c2cc1F

Structure (SMILES): COc1ccc(C2=[N+]3C(=Nc4c5c6ccccc6c6ccc(C(C)(C)C)cc6c5c(-c5ccc(OC)cc5)n4[B-]3(F)F)c3c2c2cc(C(C)(C)C)ccc2c2ccccc32)cc1
absorption maximum (in Cc1ccccc1): 716 nm

absorption maximum (in ClC(Cl)Cl): 451 nm
Structure (SMILES): CCCCCCc1ccc(-c2ccc(-c3cc(-c4ccc(-c5ccc(CCCCCC)s5)s4)c4ccc5c(-c6ccc(-c7ccc(CCCCCC)s7)s6)cc(-c6ccc(-c7ccc(CCCCCC)s7)s6)c6ccc3c4c65)s2)s1

absorption maximum (in ClCCl): 432 nm
Structure (SMILES): COc1ccc(N(c2ccccc2)c2ccc3ccc4c(N(c5ccccc5)c5ccc(OC)cc5)ccc5ccc2c3c54)cc1

absorption maximum (in ClCCl): 518 nm
Structure (SMILES): Brc1cc2nc3cc4c5c(cccc5c3nc2cc1Br)C(c1ccccc1)=C(c1ccccc1)O4

Structure (SMILES): O=C1c2ccccc2C(=O)N1c1ccc(Cn2cncn2)cc1
absorption maximum (in C1CCOC1): 293 nm | absorption maximum (in C1COCCO1): 284 nm | absorption maximum (in CC#N): 315 nm | absorption maximum (in CC(C)=O): 304 nm | absorption maximum (in CC(C)O): 306 nm | absorption maximum (in CCCCCC): 278 nm | absorption maximum (in CCCCO): 302 nm | absorption maximum (in CCO): 308 nm | absorption maximum (in CCOC(C)=O): 290 nm | absorption maximum (in CCOCC): 289 nm | absorption maximum (in CN(C)C=O): 314 nm | absorption maximum (in CO): 312 nm | absorption maximum (in CS(C)=O): 320 nm | absorption maximum (in Cc1ccccc1): 283 nm | absorption maximum (in ClCCl): 294 nm

absorption maximum (in C1CCOC1): 359 nm | absorption maximum (in C1COCCO1): 360 nm | absorption maximum (in CC#N): 358 nm | absorption maximum (in CC(C)O): 358 nm | absorption maximum (in CCO): 358 nm | absorption maximum (in CCOC(C)=O): 358 nm | absorption maximum (in CN(C)C=O): 361 nm | absorption maximum (in CO): 357 nm | absorption maximum (in CS(C)=O): 364 nm | absorption maximum (in O): 360 nm
Structure (SMILES): COc1ccc(C2CC(c3ccc(O)cc3)=NN2c2ccc(S(N)(=O)=O)cc2)cc1 (stereo not given)

Structure (SMILES): COc1ccc2c(c1)-c1nc(-c3ccccc3)c3ccccc3[n+]1[B-](F)(F)O2
absorption maximum (in Cc1ccccc1): 434 nm

absorption maximum (in CO): 768 nm
Structure (SMILES): CC1(C)C(/C=C/C2=C(Oc3ccc(CCN=C=S)cc3Br)C(=C/C=C3/N(CCCS(=O)(=O)[O-])c4ccccc4C3(C)C)/CCC2)=[N+](CCCS(=O)(=O)[O-])c2ccccc21

absorption maximum (in CCOC(C)=O): 292 nm
Structure (SMILES): CCn1c(-c2ccc(-c3cccc4ccccc34)cc2)c(-c2ccc3ccccc3c2)c(-c2ccc3ccccc3c2)c1-c1ccc(-c2cccc3ccccc23)cc1

absorption maximum (in ClC(Cl)Cl): 401 nm
Structure (SMILES): CO[Si](c1c2ccccc2cc2ccccc12)(c1c2ccccc2cc2ccccc12)c1c2ccccc2cc2ccccc12

absorption maximum (in ClCCl): 436 nm
Structure (SMILES): N#CC(C#N)=Cc1ccc2c(c1)[nH]c1c3ccccc3ccc21

absorption maximum (in ClCCl): 314 nm
Structure (SMILES): COc1cc2c(cc1OC)C1=C[C@H](c3ccc(Cl)cc3)C3(C(C#N)=C(C#N)N1CC2)c1cc(Cl)ccc1-c1ccc(Cl)cc13

absorption maximum (in CN(C)C=O): 310 nm
Structure (SMILES): Cc1nc2cccc(-c3nc4ccc(Cl)cc4o3)c2c(=O)[nH]1

Structure (SMILES): Fc1c(F)c(-n2c3ccccc3c3ccccc32)c(F)c(F)c1/C=C/c1ccc(C(=C(c2ccccc2)c2ccccc2)c2ccccc2)cc1
absorption maximum (in Cc1ccccc1): 367 nm

absorption maximum (in CCO): 323 nm
Structure (SMILES): Cc1cc(=O)oc2cc(O)ccc12

absorption maximum (in C1COCCO1): 465 nm
Structure (SMILES): COc1ccc(C2=C/C(=C\c3ccc([N+](=O)[O-])cc3)C(=O)N2CC(C)C)cc1
